# Experimental data reported in paper PMC9966726, “Methylene Blue Inhibits Cromakalim-Activated K^+ Currents in Follicle-Enclosed Oocytes” (Membranes, 2023).
# Key:
# [1] = test system: T1, KATP channels of follicular cells (follicle-enclosed Xenopus oocytes); assay: [3H]glibenclamide saturation binding, microsomal membranes, filtration; design: species or system Xenopus laevis; settings: labelled compound; control without MB; 50 mM HEPES, pH 7.5, 22 °C, 60 min; sulfonylurea receptor site
# T1 construct: gene kcnj11; native channel, endogenous to follicular cells; pore tetramer with one SUR per pore subunit; isoforms not determined
# [2] = test system: T1, KATP channels of follicular cells (follicle-enclosed Xenopus oocytes); assay: two-electrode voltage clamp, cromakalim-activated K+ current, follicle-enclosed oocytes; type: cell-based, Xenopus laevis; settings: channel opener; control without MB; -20 mV; pH 7.5; slope 0.91
# [3] = test system: T1, KATP channels of follicular cells (follicle-enclosed Xenopus oocytes); assay: as above; type: cell-based, Xenopus laevis; settings: 100 μM cromakalim; 20 min MB preincubation; -20 mV; pH 7.5; noncompetitive, voltage-independent; slope 1.1
structure (smiles),measurement,setting,value
COc1ccc(Cl)cc1C(=O)NCCc1ccc(S(=O)(=O)NC(=O)NC2CCCCC2)cc1 [[^3H]glibenclamide],Kd,[1],0.00121 ± 0.00014 µM
"CC1(C)Oc2ccc(C#N)cc2C(N2CCCC2=O)C1O (stereo not drawn) [CKL, cromakalim]",EC50,[2],194 ± 21 µM
"CN(C)c1ccc2nc3ccc(N(C)C)cc3[s+]c2c1 [MB, Methylene blue]",IC50,[3],22.4 µM
